The source made the active and inactive calls.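 The calls were made as follows: active = GFP ratio vs DMSO below 0.65 in a strain, using the primary screen cutoff set for that strain's protein target; inactive = the rest.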
Experiments:
Assay in all cases: TORC1 pathway position of GFP reporter effects – S. cerevisiae, TORC1 bypass vs wild-type strains, mechanism study for yeast TOR pathway modulator project (AID 504479)
Settings in all cases: fluorescence ratio vs DMSO, at 10 µM
BY4741 = system: BY4741
YBR084C-A = system: YBR084C-A
YCL025C = system: YCL025C
YCR005C = system: YCR005C
YKL103C = system: YKL103C
YNL142W = system: YNL142W
[1] = RPL19A-GFP in TORC1 bypass strain, stronger effect = lower value
[2] = AGP1-GFP in TORC1 bypass strain, stronger effect = higher value
[3] = CIT2-GFP in TORC1 bypass strain, stronger effect = higher value
[4] = LAP4-GFP in TORC1 bypass strain, stronger effect = higher value
[5] = MEP2-GFP in TORC1 bypass strain, stronger effect = higher value

Compound	GFP ratio vs DMSO (BY4741)	GFP ratio vs DMSO (YBR084C-A; [1])	GFP ratio vs DMSO (YBR084C-A)	GFP ratio vs DMSO (YCL025C; [2])	GFP ratio vs DMSO (YCL025C)	GFP ratio vs DMSO (YCR005C; [3])	GFP ratio vs DMSO (YCR005C)	GFP ratio vs DMSO (YKL103C; [4])	GFP ratio vs DMSO (YKL103C)	GFP ratio vs DMSO (YNL142W; [5])	GFP ratio vs DMSO (YNL142W)
Cc1ccc(C(c2cc(Cl)c3cccnc3c2O)N2CCN(C)CC2)cc1 (stereo unspecified)	0.736 (inactive)	0.949	0.938 (inactive)	0.652	0.76 (inactive)	0.583	0.808 (inactive)	1.23	1.63	1.03	0.862 (inactive)
O=C(CCc1ccccc1)NNC(=S)NC(=O)c1ccccc1	1.32 (inactive)	1.33	1.31 (inactive)	0.882	1.09 (inactive)	0.847	1.04 (inactive)	1.88	3.08	1.28	1.3 (inactive)
c1ccc(-c2cccc(-c3ccccn3)n2)nc1	0.833 (inactive)	0.963	0.926 (inactive)	0.927	0.984 (inactive)	0.688	0.683 (inactive)	1.2	1.5	1	0.847 (inactive)
N/C(Cc1ccc(Cl)cc1)=N\OC(=O)c1cccc2ccccc12	1.38 (inactive)	0.818	0.76 (inactive)	0.679	0.833 (inactive)	0.748	2.21	0.525	1.24 (inactive)	1.05	1.23 (inactive)
O=C(OCC(=O)N1CCN(C(=O)c2ccco2)CC1)c1cc(-c2cccc(Br)c2)nc2ccccc12	0.833 (inactive)	0.991	0.79 (inactive)	1.08	1.2 (inactive)	0.954	1.19 (inactive)	0.965	1.37 (inactive)	1.01	1.09 (inactive)
CC(=O)SC(C[N+](=O)[O-])c1cn(C(C)=O)c2ccccc12 (stereo unspecified)	0.941 (inactive)	1.04	1.18 (inactive)	0.739	0.805 (inactive)	0.839	0.9 (inactive)	1.4	1.8	0.918	0.743 (inactive)
Cc1cc(C(=O)Nc2nc(-c3ccccn3)cs2)ccc1[N+](=O)[O-]	0.896 (inactive)	0.905	0.985 (inactive)	1.03	1.05 (inactive)	0.839	0.907 (inactive)	0.998	1.02 (inactive)	1.04	0.972 (inactive)
Cc1ccc(C2=NOC(=O)/C2=C\c2ccc(C)o2)cc1	1.74 (inactive)	0.949	1.01 (inactive)	0.701	0.907 (inactive)	1.1	1.24 (inactive)	0.971	1.52	1.49	1.24 (inactive)
CCSc1nnc(NC(=O)c2ccccn2)s1	0.875 (inactive)	0.97	0.972 (inactive)	0.987	0.979 (inactive)	0.867	0.907 (inactive)	1.14	1.2 (inactive)	1.06	1.01 (inactive)
O=S(=O)(CCN(CCS(=O)(=O)C(F)(F)F)CC1CCCO1)C(F)(F)F (stereo unspecified)	0.958 (inactive)	1.07	1.05 (inactive)	0.817	0.958 (inactive)	1.29	1.41 (inactive)	1.2	1.85	0.942	0.986 (inactive)
O=[N+]([O-])c1cc(O)c2ncccc2c1	1.5 (inactive)	0.993	1.01 (inactive)	0.739	0.763 (inactive)	0.869	0.806 (inactive)	1.29	1.4 (inactive)	0.918	0.698 (inactive)

Source: PubChem BioAssay AID504479 (NMMLSC, 2011)
